Values quoted from earlier work as cited in patent US5087633A (G. D. Searle & Co., priority 1989, dated 1992).

Conditions: in vivo; cited from earlier work

## CCCCCNCC(N)=O [milacemide]
  Increase of whole brain content of glycine: 30%
